Assay results taken from ChEMBL document CHEMBL1126097 (J Med Chem, 1992).

Tests used:
[1] = biological target: T1, 5-hydroxytryptamine receptor 1D (Cavia porcellus, UniProt Q60484); assay: Effect on forskolin stimulated adenylate cyclase activity at 5-HT1D receptor of guinea pig substantia nigra.; type: functional
[2] = biological target: T1, 5-hydroxytryptamine receptor 1D; assay: Binding affinity against 5-hydroxytryptamine 1D receptor
[3] = biological target: T2, 5-hydroxytryptamine receptor 2C (Rattus norvegicus, UniProt P08909); assay: Binding affinity against 5-hydroxytryptamine 1C receptor
T2 sequence (P08909 whole entry): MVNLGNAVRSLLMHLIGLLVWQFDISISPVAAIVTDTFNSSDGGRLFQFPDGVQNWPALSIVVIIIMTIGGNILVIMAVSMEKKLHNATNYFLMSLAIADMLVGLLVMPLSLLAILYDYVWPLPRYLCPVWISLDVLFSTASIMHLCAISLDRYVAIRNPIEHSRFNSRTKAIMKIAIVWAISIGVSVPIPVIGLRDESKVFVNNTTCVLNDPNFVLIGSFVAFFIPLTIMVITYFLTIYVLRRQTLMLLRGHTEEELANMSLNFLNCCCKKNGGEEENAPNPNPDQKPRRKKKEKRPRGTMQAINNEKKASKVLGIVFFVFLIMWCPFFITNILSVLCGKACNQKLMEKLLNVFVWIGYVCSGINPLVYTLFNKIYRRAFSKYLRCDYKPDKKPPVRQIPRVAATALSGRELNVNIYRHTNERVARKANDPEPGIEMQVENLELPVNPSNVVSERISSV

[4] = biological target: T3, Serotonin 2 (5-HT2) receptor (Rattus norvegicus, UniProt P30994+P08909+P14842); assay: Binding affinity against 5-hydroxytryptamine 2 receptor using [125I]DOI as radioligand.; type: protein assay
[5] = biological target: T3, Serotonin 2 (5-HT2) receptor; assay: Binding affinity against 5-hydroxytryptamine 2 receptor using [3H]ket as radioligand.; type: protein assay
[6] = biological target: 5-hydroxytryptamine receptor 1B (Homo sapiens, UniProt P28222); assay: Binding affinity against 5-hydroxytryptamine 1B receptor
Sequence of 5-hydroxytryptamine receptor 1B (P28222 whole entry): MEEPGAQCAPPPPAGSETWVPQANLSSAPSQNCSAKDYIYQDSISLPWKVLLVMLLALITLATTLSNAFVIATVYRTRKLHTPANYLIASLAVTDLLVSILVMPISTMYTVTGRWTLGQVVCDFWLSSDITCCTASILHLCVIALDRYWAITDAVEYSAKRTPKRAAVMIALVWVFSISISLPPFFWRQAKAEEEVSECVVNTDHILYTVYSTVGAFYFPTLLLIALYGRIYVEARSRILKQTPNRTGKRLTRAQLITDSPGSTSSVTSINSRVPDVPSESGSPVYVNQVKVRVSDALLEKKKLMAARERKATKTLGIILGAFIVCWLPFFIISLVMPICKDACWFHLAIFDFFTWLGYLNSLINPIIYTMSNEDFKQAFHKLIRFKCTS

T1 sequence (Q60484 whole entry): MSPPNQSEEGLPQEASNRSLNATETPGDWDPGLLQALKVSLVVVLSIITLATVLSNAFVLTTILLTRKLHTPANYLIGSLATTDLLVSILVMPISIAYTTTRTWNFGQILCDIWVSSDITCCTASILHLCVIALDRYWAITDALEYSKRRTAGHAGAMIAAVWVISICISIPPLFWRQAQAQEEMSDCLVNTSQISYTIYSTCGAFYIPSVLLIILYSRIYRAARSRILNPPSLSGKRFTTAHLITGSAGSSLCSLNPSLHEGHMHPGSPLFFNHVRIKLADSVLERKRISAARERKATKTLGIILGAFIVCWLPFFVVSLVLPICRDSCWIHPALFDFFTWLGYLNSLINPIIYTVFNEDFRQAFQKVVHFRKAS

SMILES: COc1ccc2[nH]cc(C[C@H]3CCCN3C)c2c1
- EC50 [1]: 43 nM
- IC50 [2]: 24 nM
- IC50 [3]: 33 nM
- IC50 [4]: 17 nM
- IC50 [5]: 730 nM
- IC50 [6]: 830 nM

SMILES: COc1ccc2[nH]cc(C[C@@H]3CCCN3C)c2c1
- IC50 [2]: 420 nM
- IC50 [3]: 1200 nM
- IC50 [4]: 680 nM
- IC50 [5]: > 8400 nM
- IC50 [6]: 5800 nM

SMILES: COc1ccc2[nH]cc(CCN(C)C)c2c1 [MEBUFOTENIN]
- IC50 [2]: 49 nM

SMILES: NCCc1c[nH]c2ccc(O)cc12 [SEROTONIN]
- EC50 [1]: 5.2 nM
- IC50 [2]: 3 nM
